Measurements published in patent publication US20230124862A1, “BISMUTH THIOL COMPOUNDS AND COMPOSITIONS AND METHODS OF TREATING MICROBIAL CO-INFECTIONS” (Microbion Corporation, priority 2020, published 2023).
Converted amounts (≈) assume the structure as drawn. “And” between values parts separate entries of the source, which are not always exact repeats. Equal values may be shown once. Read-outs that look alike come from different tables or passages of the source. Starred links: 1 amine or outer side, 2 acyl side, 3 side chain; linkers in the order of their positions; H or OH if unused. Positions of bridges follow the written chain, without caps; N, C: chain ends. Non-standard residues stand in square brackets, D forms with d. Residues, ends and D or L forms follow the SMILES beside them. *: point of attachment. hTyr(3S-OH,4S-OH,3'-OSO3H) = N[C@H](C(=O)O)[C@H](O)[C@@H](O)c1ccc(O)c(OS(=O)(=O)O)c1; Orn(4R-OH,5R-OH) = O=C([C@H](C[C@@H](O)[C@@H](O)N[*:3])N[*:1])[*:2]; Pro(3S-OH,4S-Me) = C[C@H]1CN[C@H](C(=O)O)[C@H]1O; X1 = CCCCCOc1ccc(-c2cc(-c3ccc(C(=O)*)cc3)no2)cc1; Gln(3R-OH) = NC(=O)C[C@@H](O)[C@H](N)C(=O)O; Hyp = O=C(O)[C@@H]1C[C@@H](O)CN1

Experiments:
Candida krusei [1] = assay: Antifungal broth microdilution (Example 13); format: cell-based
Aspergillus spp. = assay: Antifungal broth microdilution (Example 13); format: cell-based, A. niger, A. terreus, A. fumigatus, A. flavus
[2] = test system: C. parapsilosis ATCC 22019; assay: Antifungal broth microdilution (Example 13), QC organism; format: cell-based, Candida parapsilosis; conditions: comparators, single value
Candida krusei [3] = conditions: C. krusei ATCC 6258, CLSI established QC range, cited from earlier work
[4] = test system: C. parapsilosis ATCC 22019; conditions: cited from earlier work
E. coli ATCC 25922 = assay: MIC control strain; conditions: QC organism, Example 13
S. aureus ATCC 29213 [5] = assay: MIC control strain; conditions: QC organism, Example 13
S. aureus ATCC 29213 [6] = conditions: control strain ATCC 29213; cited from earlier work
Enterobacteriaceae [7] = assay: Broth microdilution MIC (Example 11); format: cell-based, E. coli, K. pneumoniae, Enterobacter cloacae
[8] = test system: P. aeruginosa and A. baumannii; assay: Broth microdilution MIC (Example 11); format: cell-based, Pseudomonas aeruginosa, Acinetobacter baumannii
S. aureus [9] = assay: Broth microdilution MIC (Example 11); format: cell-based, Staphylococcus aureus
Enterococcus spp. = assay: Broth microdilution MIC (Example 11); format: cell-based, E. faecalis, E. faecium; conditions: Lev^R Cip^R Ery^R
Enterobacteriaceae [10] = conditions: E. coli MMX 102 (ATCC 25922); CLSI QC ranges shown in parenthesis; cited from earlier work
[11] = test system: P. aeruginosa and A. baumannii; conditions: P. aeruginosa MMX 103 (ATCC 27853); CLSI QC ranges shown in parenthesis; cited from earlier work
S. aureus [12] = conditions: S. aureus MMX 101 (ATCC 29213); cited from earlier work

## CC[C@H](C)C[C@H](C)CCCCCCCCC(=O)N[C@H]1C[C@@H](O)[C@@H](NCCN)NC(=O)[C@@H]2[C@@H](O)CCN2C(=O)[C@H]([C@H](O)CCN)NC(=O)[C@H]([C@H](O)[C@@H](O)c2ccc(O)cc2)NC(=O)[C@@H]2C[C@@H](O)CN2C(=O)[C@H]([C@@H](C)O)NC1=O [Caspofungin]
Candida krusei [1]; C. krusei ATCC 6258, 24 hr, comparators, single value
  MIC 24 hr: 0.25 µg/mL (≈ 0.229 µM)
Candida krusei [1]; C. krusei ATCC 6258, 48 hr, comparators, single value
  MIC 48 hr: 0.25 µg/mL (≈ 0.229 µM)
Aspergillus spp.; A. flavus ATCC 204304, 24 hr, MEC
  MIC 24 hr (MEC): 0.12 (MEC)
Aspergillus spp.; A. flavus ATCC 204304, 48 hr, MEC
  MIC 48 hr (MEC): 0.06 (MEC)
Aspergillus spp.; A. fumigatus ATCC MYA-3626, 24 hr, MEC
  MIC 24 hr (MEC): 0.06 (MEC)
Aspergillus spp.; A. fumigatus ATCC MYA-3626, 48 hr, MEC
  MIC 48 hr (MEC): 0.06 (MEC)
[2]
  MIC 24 hr: 0.25 µg/mL (≈ 0.229 µM)
  MIC 48 hr: 0.5 µg/mL (≈ 0.457 µM)
Candida krusei [3]
  QC Range 24 hr: 0.12-1
  QC Range 48 hr: 0.25-2
[4]; C. parapsilosis ATCC 22019, CLSI established QC range, 24 hr
  QC Range 24 hr: 0.25-1
[4]; C. parapsilosis ATCC 22019, CLSI established QC range, 48 hr
  QC Range 48 hr: 0.5-4
E. coli ATCC 25922
  MIC 24 hr: >64
S. aureus ATCC 29213 [5]
  MIC 24 hr: >64

## CC[C@H]1OC(=O)[C@H](C)[C@@H](O[C@H]2C[C@@](C)(OC)[C@@H](O)[C@H](C)O2)[C@H](C)[C@@H](O[C@@H]2O[C@H](C)C[C@H](N(C)C)[C@H]2O)[C@](C)(OC)C[C@@H](C)C(=O)[C@H](C)[C@@H](O)[C@]1(C)O [Clarithromycin, reference compound]
S. aureus ATCC 29213 [6]
  Expected MIC: goal (acceptable range): 0.25 (0.12-0.5) mcg/mL

## CCCCCOc1ccc(-c2cc(-c3ccc(C(=O)N[C@H]4C[C@@H](O)[C@@H](O)NC(=O)[C@@H]5[C@@H](O)[C@@H](C)CN5C(=O)[C@H]([C@H](O)CC(N)=O)NC(=O)[C@H]([C@H](O)[C@@H](O)c5ccc(O)c(OS(=O)(=O)O)c5)NC(=O)[C@@H]5C[C@@H](O)CN5C(=O)[C@H]([C@@H](C)O)NC4=O)cc3)no2)cc1 [Micafungin] (X1-[Orn(4R-OH,5R-OH)]T[Hyp][hTyr(3S-OH,4S-OH,3'-OSO3H)][Gln(3R-OH)][Pro(3S-OH,4S-Me)]; lactam 1-C)
Candida krusei [1]
  MIC 24 hr: 0.5 µg/mL (≈ 0.394 µM)
  MIC 48 hr: 0.5 µg/mL (≈ 0.394 µM)
Aspergillus spp.
  MIC 24 hr (MEC): 0.06 (MEC) and 0.03 (MEC)
  MIC 48 hr (MEC): 0.008 (MEC)
[2]
  MIC 24 hr: 0.5 µg/mL (≈ 0.394 µM)
  MIC 48 hr: 2 µg/mL (≈ 1.57 µM)
Candida krusei [3]
  QC Range 24 hr: 0.12-0.5
  QC Range 48 hr: 0.12-0.5
[4]
  QC Range 24 hr: 0.5-2
  QC Range 48 hr: 0.5-4
E. coli ATCC 25922
  MIC 24 hr: >64
S. aureus ATCC 29213 [5]
  MIC 24 hr: >64

## Gentamicin
Enterobacteriaceae [7]; E. cloacae MMX 5981 (ATCC BAA-2468), NDM-1, Lev^R MEM^R CAZ^R Gm^R
  MIC: >64 µg/mL
Enterobacteriaceae [7]; E. coli MMX 102 (ATCC 25922), QC
  MIC: 1 µg/mL
Enterobacteriaceae [7]; E. coli MMX 5980 (ATCC BAA-2469), NDM-1, Lev^R MEM^R CAZ^R Gm^R
  MIC: >64 µg/mL
Enterobacteriaceae [7]; E. coli MMX 8423, ESBL, Lev^R CAZ^R Gm^R
  MIC: 64 µg/mL
Enterobacteriaceae [7]; E. coli MMX 8424, ESBL, CAZ^R
  MIC: 0.25 µg/mL
Enterobacteriaceae [7]; E. coli MMX 8425, ESBL, Lev^R CAZ^R Gm^R
  MIC: >64 µg/mL
Enterobacteriaceae [7]; K. pneumoniae MMX 4622, KPC-2, MEM^R CAZ^R
  MIC: 0.25 µg/mL
Enterobacteriaceae [7]; K. pneumoniae MMX 4623, KPC-2, MEM^R CAZ^R Gm^R
  MIC: 64 µg/mL
Enterobacteriaceae [7]; K. pneumoniae MMX 4653, KPC-3, Lev^R MEM^R CAZ^R
  MIC: 1 µg/mL
Enterobacteriaceae [7]; K. pneumoniae MMX 4683, KPC-2, Lev^R MEM^R CAZ^R
  MIC: 1 µg/mL
Enterobacteriaceae [7]; K. pneumoniae MMX 4684, ESBL, MEM^R
  MIC: 0.25 µg/mL
Enterobacteriaceae [7]; K. pneumoniae MMX 4685, ESBL, Lev^R MEM^R CAZ^R
  MIC: 1 µg/mL
Enterobacteriaceae [7]; K. pneumoniae MMX 4694, KPC-3, Lev^R MEM^R CAZ^R
  MIC: 8 µg/mL
Enterobacteriaceae [7]; K. pneumoniae MMX 5979, NDM-1, Lev^R MEM^R CAZ^R Gm^R
  MIC: >64 µg/mL
[8]; A. baumannii MMX 2592, MDR, Lev^R Cip^R MEM^R CAZ^R Gm^R
  MIC: >64 µg/mL
[8]; A. baumannii MMX 2593, MDR, Lev^R Cip^R MEM^R CAZ^R Gm^R
  MIC: >64 µg/mL
[8]; A. baumannii MMX 3372, MDR, Cip^R MEM^1 CAZ^1
  MIC: 0.5 µg/mL
[8]; A. baumannii MMX 3373, Sensitive
  MIC: 0.12 µg/mL
[8]; A. baumannii MMX 4651 (NCTC 13304), MDR: OXA-27, Lev^R Cip^R MEM^R CAZ^R Gm^1
  MIC: 8 µg/mL
[8]; P. aeruginosa MMX 103 (ATCC 27853), QC
  MIC: 1 µg/mL
[8]; P. aeruginosa MMX 1381, MDR, Lev^R Cip^R MEM^R CAZ^R
  MIC: 8 µg/mL
[8]; P. aeruginosa MMX 2562, MDR, Lev^R Cip^R MEM^R CAZ^R
  MIC: 8 µg/mL
[8]; P. aeruginosa MMX 3991, MDR, Lev^R Cip^R MEM^R CAZ^R
  MIC: 4 µg/mL
[8]; P. aeruginosa MMX 4654, IMP-7, Lev^R Cip^R MEM^R CAZ^R
  MIC: >64 µg/mL
[8]; P. aeruginosa MMX 4697, VIM-2, Lev^R Cip^R MEM^R CAZ^R
  MIC: 4 µg/mL
S. aureus [9]; S. aureus MMX 101 (ATCC 29213), QC, MSSA
  MIC: 0.12 µg/mL
S. aureus [9]; S. aureus MMX 5373, MRSA, Lev^R Cip^R CC^R Ery^R Ox^R
  MIC: 0.25 µg/mL
S. aureus [9]; S. aureus MMX 6311, MRSA, Lev^R Cip^R CC^R Ery^R Ox^R
  MIC: 0.25 µg/mL
S. aureus [9]; S. aureus MMX 9203, MRSA, Lev^R Cip^R Ery^R Ox^R
  MIC: 0.12 µg/mL
S. aureus [9]; S. aureus MMX 9204, MRSA, Lev^R Cip^R Ery^R Ox^R
  MIC: 0.25 µg/mL
S. aureus [9]; S. aureus MMX 9205, MRSA, Lev^R Cip^R CC^R Ery^R Ox^R
  MIC: 0.25 µg/mL
Enterococcus spp.; E. faecalis MMX 8960, VRE
  MIC: >64 µg/mL
Enterococcus spp.; E. faecalis MMX 8961, VRE
  MIC: 8 µg/mL
Enterococcus spp.; E. faecalis MMX 8962, VRE
  MIC: >64 µg/mL
Enterococcus spp.; E. faecium MMX 485, VRE vanA
  MIC: >64 µg/mL
Enterococcus spp.; E. faecium MMX 752, VRE vanA
  MIC: >64 µg/mL
Enterobacteriaceae [10]
  MIC, CLSI QC range: (0.25-1) μg/mL
[11]
  MIC, CLSI QC range: (0.5-2) μg/mL
S. aureus [12]
  CLSI QC range of MIC: (0.12-1) μg/mL
